Values quoted from earlier work as cited in patent US6391860B1, “Method for preparation and use of paste formed by controlled reaction of sucralfate with hydrochloric acid” (priority 1999, dated 2002).

In the case of “aluminum hydroxide salt of sucrose octasulfate [Sucralfate]”, the “solubility in most polar and non-polar solvents” value is listed as “insoluble” and the “solubility in strong acid and strong alkali” value is listed as “soluble”.
